From PMC8972196, “A Set of Experimentally Validated Decoys for the Human CC Chemokine Receptor 7 (CCR7) Obtained by Virtual Screening” (Frontiers in Pharmacology, 2022)

How the values were obtained:
human CCR7 [1] = molecular target: T1, human CCR7 (Homo sapiens, UniProt P32248); experiment: CCL19-induced calcium mobilization assay, U87.CD4 cells expressing CCR7; assay type: cell-based
T1 construct: expressed in transfected cells
T1 sequence (P32248 25-378): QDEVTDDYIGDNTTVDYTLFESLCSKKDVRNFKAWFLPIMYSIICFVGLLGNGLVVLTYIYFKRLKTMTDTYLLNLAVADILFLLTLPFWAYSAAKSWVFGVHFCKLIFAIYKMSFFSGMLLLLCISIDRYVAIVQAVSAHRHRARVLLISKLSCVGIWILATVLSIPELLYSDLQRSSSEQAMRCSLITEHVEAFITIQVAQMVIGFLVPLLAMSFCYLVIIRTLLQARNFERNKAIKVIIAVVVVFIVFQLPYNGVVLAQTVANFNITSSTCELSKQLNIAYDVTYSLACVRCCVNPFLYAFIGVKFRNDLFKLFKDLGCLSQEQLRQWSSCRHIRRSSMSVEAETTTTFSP
Summary of the method: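 U87.CD4 cells stably expressing human CCR7, CXCR2 or CCR5 were seeded at 20,000 cells/well and incubated overnight at 37°C and 5% CO2. Cells were then incubated for 45 min at room temperature in the dark before calcium responses were recorded. CCR7 responses were induced with CCL19 and CXCR2 responses with CXCL8.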

human CCR7 [2] = molecular target: T1, human CCR7; experiment: CCR7 competition binding assay with CCL19^AF647 (flow cytometry, whole cells)
Experimental: In brief, U87.CD4.CCR7 cells were pre-incubated with compound (at different concentrations) in 150 μL assay buffer [Hank’s balanced salt solution (HBSS), 20 mM HEPES and 0.5% Fetal Calf Serum] for 15 min at room temperature (RT) in the dark. Afterwards, 50 μL of CCL19^AF647 was added (25 ng/mL final concentration) and samples were incubated for another 30 min at RT, protected from light. Then, cells were washed twice with assay buffer and fixed in 1% paraformaldehyde in Dulbecco’s phosphate-buffered saline (DPBS).
Samples were immediately analyzed by flow cytometry (FACS Canto II, BD). Data were analysed using Flowjo. The percentage inhibition of CCL19^AF647 binding was calculated according to formula {1—[(MFIX–MFINC)/(MFIPC–MFINC)]} x 100, where MFIX is the mean fluorescence intensity (MFI) of the compound-treated sample, MFINC the MFI of the negative control (i.e., autofluorescence of untreated and unlabeled cells) and MFIPC the MFI of the positive control (i.e., cells exposed to CCL19^AF647 only). […] For each experiment the stain index (SI) was calculated as the ratio of the separation between MFIPC and MFINC, divided by two times the standard deviation of MFINC.

CCR7 = tested on: CCR7; parameters: method as in Jaeger et al., 2019; settings: result in words; ref Jaeger et al., 2019; cited from earlier work
[3] = CCL19-induced calcium signaling, read-out: IC50 [μM] block CCL19 induced calcium signaling
[4] = classification of tested compounds as decoy or active
[5] = CCL19 induced calcium signaling, read-out: IC50 [μM] block CCL19 induced calcium signaling
[6] = classification as decoy or active on CCR7

Row | IC50 (human CCR7 [1]; [3]) | Compound | Decoy – 0 Active – 1 (human CCR7 [1]; [4]) | IC50 (human CCR7 [1]; [5]) | Decoy – 0 Active – 1 (human CCR7 [1]; [6]) | further results
1 | – | CC[C@@H](NC(=O)N1CCN(C(=O)c2ccccc2)CC1)c1cccc(C)n1 [C161, CC[C@@H](NC(=O)N1CCN(C(=O)c2ccccc2)CC1)c1cccc(C)n1] | – | > 50 µM | 0 | –
2 | – | CC(=O)N1CCCCC1CC(=O)NC1(C)CCc2ccccc2C1 (stereo not shown) [C193, CC(=O)N1CCCCC1CC(=O)NC1(C)CCc2ccccc2C1] | – | > 50 µM | 0 | –
3 | > 50 µM | CNC(=O)[C@H](NC1=NS(=O)(=O)c2ccccc21)C(C)C [C157, CNC(=O)[C@H](NC1=NS(=O)(=O)c2ccccc21)C(C)C] | 0 | – | – | –
4 | > 50 µM | O=C(CCCc1ccccc1)N[C@H]1CCN(CC(F)(F)F)C1=O [C096, O=C(CCCc1ccccc1)N[C@H]1CCN(CC(F)(F)F)C1=O] | 0 | – | – | –
5 | – | COc1ccc(S(=O)(=O)N(CC(=O)N2CCCC2)c2ccc(Cl)cc2)cc1 [C263, COc1ccc(cc1)S(=O)(=O)N(CC(=O)N2CCCC2)c3ccc(cc3)Cl] | – | > 50 µM | 0 | –
6 | > 50 µM | Cc1ccc(CNC(=O)c2nnc(-c3ccc(S(=O)(=O)N(C)C)cc3)o2)o1 [C088, Cc1ccc(CNC(=O)c2nnc(-c3ccc(S(=O)(=O)N(C)C)cc3)o2)o1] | 0 | – | – | –
7 | > 50 µM | CC(O)CNc1c(NCc2ccc3c(c2)OCO3)c(=O)c1=O (stereo not shown) [C001, CC(O)CNc1c(NCc2ccc3c(c2)OCO3)c(=O)c1=O] | 0 | – | – | –
8 | – | CCOC(=O)N1CCC(Nc2c(NCCOC)c(=O)c2=O)CC1 [CS-3, Ethyl 4-((2-((2-methoxyethyl)amino)-3,4-dioxocyclobut-1-en-1-yl)amino)piperidine-1-carboxylate, reference compound] | 0 | – | – | IC50 (human CCR7 [1]): > 50 µM; CCR7 antagonism in calcium mobilization assay (human CCR7 [1]; CCL19-induced, result in words): inactive; IC50 (human CCR7 [2]; inhibition of CCL19^AF647 binding, Mean ± SD of four independent experiments): > 50 µM; inhibition of CCL19^AF647 binding / CCR7 affinity (human CCR7 [2]; result in words): did not show any CCR7 affinity; thermal stabilization of CCR7 (CCR7): hits in the thermofluor stability assay, albeit less potent than cmp2105 and navarixin
9 | – | CC(C)(C)c1ccc(CN(Cc2ccccc2)Cc2nc(C(=O)N3CCOCC3)co2)cc1 [C243, CC(C)(C)c1ccc(cc1)C[NH+](Cc2ccccc2)Cc3nc(co3)C(=O)N4CCOCC4] | – | > 50 µM | 0 | –

Row | Compound | IC50 (human CCR7 [1]; [3]) | Decoy – 0 Active – 1 (human CCR7 [1]; [4]) | IC50 (human CCR7 [1]; [5]) | Decoy – 0 Active – 1 (human CCR7 [1]; [6]) | further results
10 | CNC(=O)c1ccc(C=CC(=O)N(Cc2ccsc2)C2CC2)cc1 [C059, CNC(=O)c1ccc(C=CC(=O)N(Cc2ccsc2)C2CC2)cc1] | > 10 µM | 0 | – | – | –
11 | Cc1ccc(NC2=NC(=O)SC2=Cc2ccco2)cc1 [C078, Cc1ccc(NC2=[NH+]C(=O)SC2=Cc2ccco2)cc1] | > 10 µM | 0 | – | – | –
12 | COc1ccc(N2CCN(c3c(NCc4cccc(Cl)c4)c(=O)c3=O)CC2)cc1 [C002, COc1ccc(N2CCN(c3c(NCc4cccc(Cl)c4)c(=O)c3=O)CC2)cc1] | > 50 µM | 0 | – | – | –
